Measured values taken from patent US7838218B2, “Light emitting probes” (priority 2003, dated 2010).

Target: T1, rabbit serum albumin (RSA) (Oryctolagus cuniculus, UniProt P49065)
T1 construct: purchased Sigma (Sigma-Aldrich Chemical Co.)
Test: Fluorescence emission of probes with rabbit serum albumin as binder
Assay type: binding
Conditions: pyrene butyric acid excited at 345 nm, FITC at 490 nm; PBS
Experimental: Fluorescence measurements were made on a Hitachi F-2500 fluorescence spectrophotometer with a 1 cm path length cuvette. Spectra were measured at a rate of 1500 nm/min. Excitation wavelength of 345 nm was used for pyrene and 490 nm for FITC.
Lifetimes were measured on modified IBH machine.
Proteins with hydrophobic pockets could be used as binders. […] The binder is not restricted to proteins. […] The excitation wavelength was 345 nm.

T1 sequence (P49065 25-608): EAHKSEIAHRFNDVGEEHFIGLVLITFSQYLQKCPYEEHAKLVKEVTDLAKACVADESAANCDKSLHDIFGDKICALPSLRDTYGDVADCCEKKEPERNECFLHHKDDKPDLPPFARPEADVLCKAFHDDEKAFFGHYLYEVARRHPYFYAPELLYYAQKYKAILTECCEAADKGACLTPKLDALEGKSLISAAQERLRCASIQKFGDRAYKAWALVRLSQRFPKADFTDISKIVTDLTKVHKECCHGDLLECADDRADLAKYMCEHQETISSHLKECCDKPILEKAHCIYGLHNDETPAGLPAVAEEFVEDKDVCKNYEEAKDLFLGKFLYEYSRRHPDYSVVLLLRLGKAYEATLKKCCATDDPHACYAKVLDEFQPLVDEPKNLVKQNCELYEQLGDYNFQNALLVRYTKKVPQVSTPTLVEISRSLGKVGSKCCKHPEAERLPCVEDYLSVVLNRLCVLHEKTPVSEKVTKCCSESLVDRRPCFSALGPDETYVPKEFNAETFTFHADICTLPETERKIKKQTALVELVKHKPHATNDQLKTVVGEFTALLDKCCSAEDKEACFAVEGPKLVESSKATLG

SMILES	effect of RSA on own emission spectrum of the free fluorophore
O=C1OC2(c3ccc(O)cc3Oc3cc(O)ccc32)c2ccc(N=C=S)cc21 [FITC, fluorescein isothiocynate]	appears not to change
c1cc2ccc3cccc4ccc(c1)c2c34 [pyrene butyric acid]	increasing the fluorescence intensity
